# Source: patent publication US20250213735A1, “NEUROPEPTIDE Y1 RECEPTOR (NPY1R) TARGETED THERAPEUTICS AND USES THEREOF” (Radionetics Oncology, Inc., priority 2023, published 2025)
# Numbered stars: 1 amine (or outer) side, 2 acyl side, 3 side chain; on linkers, the order of the positions; unused ones are H or OH. Square brackets hold non-standard residues; d marks the D form. Peptide text beside a SMILES is read from it. * marks the point of attachment. dArg(Nω-CONH(CH2)2NHCOEt) = CCC(=O)NCCNC(=O)/N=C(/N)NCCC[C@@H](N)C(=O)O; DOTA = O=C(O)CN1CCN(CC(=O)O)CCN(CC(=O)*)CCN(CC(=O)O)CC1; X1 = O=C([C@H](c1ccc(OCCCN[*:1])cc1)N1Cc2ccccc2C1)[*:2]; NH(2,6-F2-4-OH-benzyl) = Oc1cc(F)c(CN*)c(F)c1; βAla = NCCC(=O)O
# Molecular target: hNPY1R (Homo sapiens (Human), UniProt P25929)
# Sequence (P25929 whole entry): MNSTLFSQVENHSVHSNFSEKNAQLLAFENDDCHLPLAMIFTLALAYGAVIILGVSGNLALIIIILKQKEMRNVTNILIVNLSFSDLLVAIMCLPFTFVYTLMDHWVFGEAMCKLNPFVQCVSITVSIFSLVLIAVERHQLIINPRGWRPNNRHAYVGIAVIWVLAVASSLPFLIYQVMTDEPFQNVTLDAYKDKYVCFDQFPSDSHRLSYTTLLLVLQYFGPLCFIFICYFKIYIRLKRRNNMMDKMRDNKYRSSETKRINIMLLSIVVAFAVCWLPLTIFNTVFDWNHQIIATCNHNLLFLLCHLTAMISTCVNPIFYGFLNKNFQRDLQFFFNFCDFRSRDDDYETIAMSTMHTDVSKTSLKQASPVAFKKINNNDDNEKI
# Assay: NPY1R binding assay (SK-N-MC membrane, [125I]-Peptide YY competition);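 further: bound radioligand separated by filtration over GF/C filter plates and counted, Ki obtained by non-linear regression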
# Details: crude SK-N-MC membranes endogenously expressing NPY1R; [125I]-Peptide YY (human) 0.05 nM; 120 min at room temperature; read-out: hNPY1R binding Ki
# Protocol: Crude membrane fractions are prepared from SK-N-MC cells endogenously expressing the NPY1R receptor. The cells are grown to 85-100% confluence on standard tissue culture dishes in Eagle's Minimum Essential Medium supplemented with 10% dialyzed FBS. To prepare membranes, cells are scraped and collected in 1× Dulbecco's phosphate buffered saline and then pelleted at 1000 RPM's. The cell pellet is reconstituted in membrane preparation buffer (20 mM HEPES, 6 mM MgCl2 and 1 mM EGTA, protease inhibitor tablets, pH 7.4) and placed in a cell disruption vessel at 1000 PSI for 30 minutes on ice. The pressurized contents are then released and spun down at 1000 RPMs and the supernatant is collected and further centrifuged at 15,000 RPMs to pellet the membranes. The membrane pellet is resuspended in membrane preparation buffer, snap frozen and stored at −80° C. for later use.
# Assay contents are then filtered through unifilter GF/C microplates and washed with 9×400 μl of cold wash buffer (25 mM HEPES, 5 mM MgCl2, 1 mM CaCl2), 500 mM NaCl, 0.1% Tween-20, pH 7.4). Assay plates are read using a Top Count NXT and Ki values for compounds are determined using a GraphPad Prism 6 non-linear regression analysis.
row,Compound,Ki
1,"CCC(=O)NCCNC(=O)/N=C(/N)NCCC[C@@H](NC(=O)[C@H](c1ccc(OCCCNC(=O)[C@@H](CC(N)=O)NC(=O)CCNC(=O)CN2CCN(CC(=O)O)CCN(CC(=O)O)CCN(CC(=O)O)CC2)cc1)N1Cc2ccccc2C1)C(=O)NCc1c(F)cc(O)cc1F [compound 50, 2,2′,2″-(10-(2-((3-(((R)-4-amino-1-((3-(4-((1S,4R,Z)-9-amino-4-((2,6-difluoro-4-hydroxybenzyl)carbamoyl)-1-(isoindolin-2-yl)-2,11,16-trioxo-3,8,10,12,15-pentaazaoctadec-9-en-1-yl)phenoxy)propyl)amino)-1,4-dioxobutan-2-yl)amino)-3-oxopropyl)amino)-2-oxoethyl)-1,4,7,10-tetraazacyclododecane-1,4,7-triyl)triacetic acid]",< 10 nM
2,"CCC(=O)NCCNC(=O)/N=C(/N)NCCC[C@@H](NC(=O)[C@H](c1ccc(OCCCNC(=O)[C@@H](CC(N)=O)NC(=O)[C@@H](CO)NC(=O)CCNC(=O)CN2CCN(CC(=O)O)CCN(CC(=O)O)CCN(CC(=O)O)CC2)cc1)N1Cc2ccccc2C1)C(=O)NCc1c(F)cc(O)cc1F [compound 51, 2,2′,2″-(10-((8R,11R)-11-(2-amino-2-oxoethyl)-16-(4-((1S,4R,Z)-9-amino-4-((2,6-difluoro-4-hydroxybenzyl)carbamoyl)-1-(isoindolin-2-yl)-2,11,16-trioxo-3,8,10,12,15-pentaazaoctadec-9-en-1-yl)phenoxy)-8-(hydroxymethyl)-2,6,9,12-tetraoxo-3,7,10,13-tetraazahexadecyl)-1,4,7,10-tetraazacyclododecane-1,4,7-triyl)triacetic acid]",< 10 nM
3,"CCC(=O)NCCNC(=O)/N=C(/N)NCCC[C@@H](NC(=O)[C@H](c1ccc(OCCCNC(=O)C[C@H]2NC(=O)[C@@H](CCNC(=O)CN3CCN(CC(=O)O)CCN(CC(=O)O)CCN(CC(=O)O)CC3)NC2=O)cc1)N1Cc2ccccc2C1)C(=O)NCc1c(F)cc(O)cc1F [compound 52, 2,2′,2″-(10-(2-((2-((2R,5R)-5-(2-((3-(4-((1S,4R,Z)-9-amino-4-((2,6-difluoro-4-hydroxybenzyl)carbamoyl)-1-(isoindolin-2-yl)-2,11,16-trioxo-3,8,10,12,15-pentaazaoctadec-9-en-1-yl)phenoxy)propyl)amino)-2-oxoethyl)-3,6-dioxopiperazin-2-yl)ethyl)amino)-2-oxoethyl)-1,4,7,10-tetraazacyclododecane-1,4,7-triyl)triacetic acid]",< 10 nM
4,"CCC(=O)NCCNC(=O)/N=C(/N)NCCC[C@@H](NC(=O)[C@H](c1ccc(OCCCNC(=O)C[C@H](O)C[C@H](O)CCNC(=O)CCC(=O)NCCNC(=O)CN2CCN(CC(=O)O)CCN(CC(=O)O)CCN(CC(=O)O)CC2)cc1)N1Cc2ccccc2C1)C(=O)NCc1c(F)cc(O)cc1F [compound 53, 2,2′,2″-(10-((14R,16R)-22-(4-((1S,4R,Z)-9-amino-4-((2,6-difluoro-4-hydroxybenzyl)carbamoyl)-1-(isoindolin-2-yl)-2,11,16-trioxo-3,8,10,12,15-pentaazaoctadec-9-en-1-yl)phenoxy)-14,16-dihydroxy-2,7,10,18-tetraoxo-3,6,11,19-tetraazadocosyl)-1,4,7,10-tetraazacyclododecane-1,4,7-triyl)triacetic acid]",< 10 nM
5,"CCC(=O)NCCNC(=O)/N=C(/N)NCCC[C@@H](NC(=O)[C@H](c1ccc(OCCCNC(=O)[C@@H](CO)NC(=O)[C@@H](CO)NC(=O)[C@@H](CO)NC(=O)CCNC(=O)CN2CCN(CC(=O)O)CCN(CC(=O)O)CCN(CC(=O)O)CC2)cc1)N1Cc2ccccc2C1)C(=O)NCc1c(F)cc(O)cc1F [compound 54, 2,2′,2″-(10-((8R,11R,14R)-19-(4-((1S,4R,Z)-9-amino-4-((2,6-difluoro-4-hydroxybenzyl)carbamoyl)-1-(isoindolin-2-yl)-2,11,16-trioxo-3,8,10,12,15-pentaazaoctadec-9-en-1-yl)phenoxy)-8,11,14-tris(hydroxymethyl)-2,6,9,12,15-pentaoxo-3,7,10,13,16-pentaazanonadecyl)-1,4,7,10-tetraazacyclododecane-1,4,7-triyl)triacetic acid] ({DOTA-βAla}-[dS][dS][dS][X1][dArg(Nω-CONH(CH2)2NHCOEt)]-{NH(2,6-F2-4-OH-benzyl)})",< 10 nM
6,"CCC(=O)NCCNC(=O)/N=C(/N)NCCC[C@@H](NC(=O)[C@H](c1ccc(OCCCNC(=O)CCN(C)CCNC(=O)CN2CCN(CC(=O)O)CCN(CC(=O)O)CCN(CC(=O)O)CC2)cc1)N1Cc2ccccc2C1)C(=O)NCc1c(F)cc(O)cc1F [compound 55, 2,2′,2″-(10-(2-((2-((3-((3-(4-((1S,4R,Z)-9-amino-4-((2,6-difluoro-4-hydroxybenzyl)carbamoyl)-1-(isoindolin-2-yl)-2,11,16-trioxo-3,8,10,12,15-pentaazaoctadec-9-en-1-yl)phenoxy)propyl)amino)-3-oxopropyl)(methyl)amino)ethyl)amino)-2-oxoethyl)-1,4,7,10-tetraazacyclododecane-1,4,7-triyl)triacetic acid]",< 10 nM
7,"CCC(=O)NCCNC(=O)/N=C(/N)NCCC[C@@H](NC(=O)[C@H](c1ccc(OCCCN(C)CCCCCNC(=O)CN2CCN(CC(=O)O)CCN(CC(=O)O)CCN(CC(=O)O)CC2)cc1)N1Cc2ccccc2C1)C(=O)NCc1c(F)cc(O)cc1F [compound 56, 2,2′,2″-(10-(2-((5-((3-(4-((1S,4R,Z)-9-amino-4-((2,6-difluoro-4-hydroxybenzyl)carbamoyl)-1-(isoindolin-2-yl)-2,11,16-trioxo-3,8,10,12,15-pentaazaoctadec-9-en-1-yl)phenoxy)propyl)(methyl)amino)pentyl)amino)-2-oxoethyl)-1,4,7,10-tetraazacyclododecane-1,4,7-triyl)triacetic acid]",< 10 nM
8,"CCC(=O)NCCNC(=O)/N=C(/N)NCCC[C@@H](NC(=O)[C@H](c1ccc(OCCCCNC(=O)CCCCCNC(=O)CN2CCN(CC(=O)O)CCN(CC(=O)O)CCN(CC(=O)O)CC2)cc1)N1Cc2ccccc2C1)C(=O)NCc1ccc(O)cc1 [compound 57, 2,2′,2″-(10-(2-((6-((4-(4-((1S,4R,Z)-9-amino-4-((4-hydroxybenzyl)carbamoyl)-1-(isoindolin-2-yl)-2,11,16-trioxo-3,8,10,12,15-pentaazaoctadec-9-en-1-yl)phenoxy)butyl)amino)-6-oxohexyl)amino)-2-oxoethyl)-1,4,7,10-tetraazacyclododecane-1,4,7-triyl)triacetic acid]",< 10 nM
9,"CCC(=O)NCCNC(=O)/N=C(/N)NCCC[C@@H](NC(=O)[C@H](c1ccc(OCCNC(=O)CCCCCNC(=O)CN2CCN(CC(=O)O)CCN(CC(=O)O)CCN(CC(=O)O)CC2)cc1)N1Cc2ccccc2C1)C(=O)NCc1ccc(O)cc1 [compound 58, 2,2′,2″-(10-(2-((6-((2-(4-((1S,4R,Z)-9-amino-4-((4-hydroxybenzyl)carbamoyl)-1-(isoindolin-2-yl)-2,11,16-trioxo-3,8,10,12,15-pentaazaoctadec-9-en-1-yl)phenoxy)ethyl)amino)-6-oxohexyl)amino)-2-oxoethyl)-1,4,7,10-tetraazacyclododecane-1,4,7-triyl)triacetic acid]",< 10 nM
